Test results as given in the METLIN SMRT retention time set (Domingo-Almenara et al. 2019).

Test: gradient 5% acetonitrile 3 min, to 50% in 2 min, to 85% in 15 min, held 3 min, 100 µL/min
Conditions: column: Zorbax Extend-C18 2.1 x 50 mm; eluents: water / acetonitrile, 0.1% formic acid
In short: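 Standards, all pure, were combined into mixtures of ~100 molecules and run at 100 μL/min on a Zorbax Extend-C18 column (2.1 × 50 mm, 1.8 μm) with water and acetonitrile, each containing 0.1% formic acid. A coupled quadrupole time-of-flight mass spectrometer operated in positive and negative ionization mode. Retention time values come from computationally picked adduct peaks, each inspected manually.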
`CCCC(=O)Nc1ccc2c(c1)CN(C(=O)c1cc(F)ccc1Cl)C(C(=O)N(C)C)C2` (stereo unspecified) showed an RP-LC retention time of 726 s. With `Cc1ccc(Nc2nc(-c3cc(C)ccc3C)cs2)nc1` the RP-LC retention time was 902 s. For `Cc1ccc(-n2nc3c(=O)n(CCCC(=O)N4CCC(C(N)=O)CC4)nc(C)c3c2C)cc1`, the RP-LC retention time was 648 s. For `COC(=O)CCSCC(=O)Nc1ccc(C)cc1C`, the RP-LC retention time was 742 s. `COc1ccc(-c2nc(CCS(=O)(=O)c3ccc(C)cc3)no2)cc1OC` showed an RP-LC retention time of 904 s. Compound `O=C(O)C1CCN(S(=O)(=O)c2ccccc2[N+](=O)[O-])CC1` has an RP-LC retention time of 701 s. `COc1ccc(-c2nc(N3CCOCC3)c3ccccc3n2)cc1` showed an RP-LC retention time of 669 s. Compound `Cc1cc(NC(=O)C2CCCN(c3nnc4ccccn34)C2)ccc1F` (stereo unspecified) has an RP-LC retention time of 717 s. In the case of `CC1=C(c2ccc(C)cc2)S(=O)(=O)N=C1N1CCCN(C(=O)CCC(C)C)CC1`, the RP-LC retention time is reported as 888 s. `CCOC(=O)Cc1ccc(NC(=O)NC2CCN(c3ccc(F)cc3)C2=O)cc1` (stereo unspecified) gave an RP-LC retention time of 812 s. `CCCNC(=O)C1CCN(Cc2cc3ccccc3n2Cc2ccc(Cl)cc2)CC1` gave an RP-LC retention time of 768 s. `CCc1ccc(N2C(=O)CN(S(C)(=O)=O)CC2(C)C(=O)NCc2ccccc2)cc1` (stereo unspecified) gave an RP-LC retention time of 809 s. Compound `CCS(=O)(=O)N1CCC(c2ccccc2)C1` (stereo unspecified) has an RP-LC retention time of 791 s. For `CCS(=O)(=O)N1CCCc2cc(C(=O)Nc3cccc(Br)c3)ccc21`, the RP-LC retention time was 1040 s. With `NC(=O)C1CCN(Cc2nc(Cn3ccn4nc(-c5ccccc5)cc4c3=O)no2)CC1` the RP-LC retention time was 618 s. In the case of `CCC1Oc2ccc(S(=O)(=O)N3CCC(C(=O)Nc4cccc(F)c4)CC3)cc2NC1=O` (stereo unspecified), the RP-LC retention time is reported as 910 s. In the case of `CC1=NS(=O)(=O)N(Cc2ccccc2)C=C1C(=O)OCc1ccccc1`, the RP-LC retention time is reported as 1090 s. Work on `CCc1cccc(NS(=O)(=O)c2cn(CC)c3ncccc23)c1` yielded an RP-LC retention time of 937 s. `Cc1cc(C)nc(NS(=O)(=O)c2ccc(Nc3nc(-c4ccc(F)c(C)c4)cs3)cc2)n1` showed an RP-LC retention time of 1000 s. `O=C(Nc1ccc(Cl)cc1Cl)c1ccc(Br)cc1F` gave an RP-LC retention time of 1360 s. For `CCN1CCCn2nc(C3CCN(S(=O)(=O)c4cnc[nH]4)CC3)cc2C1=O`, the RP-LC retention time was 592 s. For `O=C(Nc1ccc(F)cc1F)c1c(O)c2cccnc2n(-c2ccc(F)cc2)c1=O`, the RP-LC retention time was 957 s. Work on `COc1ccc(N2CCN(c3nc(C(=O)NCCN4CCCCC4)cs3)CC2)cc1` yielded an RP-LC retention time of 642 s. For `C[C@@H]1CN(C(=O)NCc2ccco2)C[C@H]1c1nc(-c2ccncc2)no1`, the RP-LC retention time was 676 s. With `CCn1cc(-c2nc(CC(=O)Nc3ccccc3Cl)cs2)c2cccnc21` the RP-LC retention time was 1050 s. `O=C(/C=C/c1cccnc1)c1ccccc1O` gave an RP-LC retention time of 817 s. With `CC(C)NC(=O)N(CC(=O)N1CCc2sccc2C1COc1cccc(F)c1)C1CC1` (stereo unspecified) the RP-LC retention time was 942 s. `CCOC(=O)Cn1c(C2CC(=O)N(c3cccc(Cl)c3)C2)nc2ccccc21` (stereo unspecified) showed an RP-LC retention time of 872 s. `Cc1cc(C)n2nc(SCC(=O)Nc3ccccc3C(F)(F)F)nc2n1` gave an RP-LC retention time of 753 s. For `O=C(Nc1ccccc1)C1CCCN(S(=O)(=O)Cc2ccccc2)C1` (stereo unspecified), the RP-LC retention time was 940 s. For `CCS(=O)(=O)N1CCCc2cc(C(=O)NCc3ccco3)ccc21`, the RP-LC retention time was 945 s. In the case of `Cc1cc(N2CCN([C@@H]3CN[C@H](C(=O)N4CCSC4)C3)CC2)n(-c2ccccc2)n1`, the RP-LC retention time is reported as 653 s. With `CCC(C(=O)NCc1ccc(C)o1)n1nc(C)c2nn(-c3ccccc3)c(C)c2c1=O` (stereo unspecified) the RP-LC retention time was 870 s. `CCOc1ccc(S(=O)(=O)N2CCCC(C(=O)NCCO)C2)cc1C` (stereo unspecified) showed an RP-LC retention time of 714 s. For `COc1ccc(OC)c(-c2csc(-c3nnn(-c4ccc(C)c(C)c4)c3N)n2)c1`, the RP-LC retention time was 1230 s. `O=C(Cn1nc(N2CCOCC2)c2ccccc2c1=O)Nc1ccc(Br)cc1` gave an RP-LC retention time of 864 s. For `CCOC(=O)C1CCCN(C(=O)Cn2cnc(-c3cccs3)cc2=O)C1` (stereo unspecified), the RP-LC retention time was 684 s. `COc1ccc(CNC(=O)c2cnc(OC)nc2)cc1` gave an RP-LC retention time of 673 s. In the case of `O=S(=O)(c1ccc2nc(N3CCN(c4cccc(Cl)c4)CC3)ccc2c1)N1CCCCC1`, the RP-LC retention time is reported as 1240 s. In the case of `Fc1ccc(-c2noc(CCc3nnc4ccc(N5CCN(C6CCCCC6)CC5)nn34)n2)cc1`, the RP-LC retention time is reported as 653 s. With `Cc1nc2ccn(Cc3cccnc3)c(=O)c2cc1C(=O)NCCC(C)C` the RP-LC retention time was 605 s. `Fc1cccc(-c2noc(-c3ccc(N4CCN(c5ccccn5)CC4)nc3)n2)c1` showed an RP-LC retention time of 799 s. In the case of `CCn1cc(C(=O)Nc2cccc(C)c2C)c2cccnc21`, the RP-LC retention time is reported as 854 s. `CCc1ccc(-c2cn3ccn(-c4ccc(OC)c(OC)c4)c(=O)c3n2)cc1` gave an RP-LC retention time of 840 s. With `Cc1ccc(S(=O)(=O)c2cnc(N3CCN(c4cc(Cl)ccc4C)CC3)nc2N)cc1C` the RP-LC retention time was 1420 s. For `O=C(NCc1ccco1)C1CCN(c2cc(N3CCSCC3)ncn2)CC1`, the RP-LC retention time was 620 s. In the case of `O=C(Nc1nc2c(s1)CN(S(=O)(=O)c1ccccc1)CC2)c1ccoc1`, the RP-LC retention time is reported as 823 s. With `CCNC(=O)C1CCN(c2nc3ccc(-c4ccccc4)nc3s2)CC1` the RP-LC retention time was 835 s. For `CCOC(=O)N1CCN(C(=O)CSc2nnc(COc3ccc(Cl)cc3)o2)CC1`, the RP-LC retention time was 799 s. Compound `COc1ccc2c(c1)C1(CCN(S(=O)(=O)c3ccc(Br)cc3)C1)C(=O)N2C` (stereo unspecified) has an RP-LC retention time of 986 s. In the case of `O=C(Cc1csc(-n2cccc2)n1)NCCc1c[nH]c2ccccc12`, the RP-LC retention time is reported as 840 s. Work on `CC(C)N1CCn2cc(S(=O)(=O)Nc3ccc(F)cc3F)cc2C1=O` yielded an RP-LC retention time of 759 s. For `CCCc1cc(N2CCN(C(=O)c3ccc4c(c3)OCO4)CC2)nc2nncn12`, the RP-LC retention time was 622 s. `COc1ccc(OC)c(S(=O)(=O)Nc2ccc(-c3cn4ccc(C)nc4n3)cc2)c1` showed an RP-LC retention time of 642 s. In the case of `O=C(NC1CC1)[C@@H]1C[C@H](Oc2ccccc2)CN1C(=O)C1(c2ccccc2)CC1`, the RP-LC retention time is reported as 855 s. `Cc1ccc(S(=O)(=O)N2CC3CN(C(=O)COc4cccc(C)c4)CC(C2)O3)cc1` gave an RP-LC retention time of 928 s. Compound `COCCCN1C(=O)c2cc(-c3ccc(OC)cc3)nn2CC1(C)C(=O)NCc1ccccc1` (stereo unspecified) has an RP-LC retention time of 826 s. In the case of `c1ccc(-c2nc3nccc(-c4ccccc4)n3n2)cc1`, the RP-LC retention time is reported as 907 s. Compound `COC(=O)C1=C(C)NC2=C(C(=O)c3ccccc32)C1c1ccc(OC)cc1OC` (stereo unspecified) has an RP-LC retention time of 856 s. For `Cc1nc(-c2noc(-c3ccc(F)cc3)n2)cn1CC(=O)NC1CCc2ccccc21` (stereo unspecified), the RP-LC retention time was 874 s. `Cc1cccc(CN2C(=O)N(c3cccc(F)c3)c3ncccc3S2(=O)=O)c1` gave an RP-LC retention time of 1050 s. Work on `O=C(c1cnccn1)N1CCC(F)(F)C(COCC2CC2)C1` (stereo unspecified) yielded an RP-LC retention time of 786 s. `CN(C)c1nccnc1OC1CCN(C(=O)C2CCCCC2)C1` (stereo unspecified) gave an RP-LC retention time of 765 s. With `Cc1cc2n(n1)CCCN2C(=O)CCC(=O)N1CCN(c2cccc(Cl)c2)CC1` the RP-LC retention time was 778 s. With `O=C(NC1CCCC1)N1CCC(c2noc(-c3ccccc3)n2)C1` (stereo unspecified) the RP-LC retention time was 868 s. Compound `CCSCCOC(=O)C1=C(C)NC2=C(C(=O)CCC2)C1c1ccc(C(=O)OC)cc1` (stereo unspecified) has an RP-LC retention time of 892 s.
